Results from US5380759A, “Methyl N-[6-(3,4,5-trimethoxybenzloxy)imidazo[1,2-b]pyridazin-2-zyl]carbamate used to treat leukemia” (priority 1987, dated 1995).

Columns and labels:
[1] = tested on: tubulin; assay: Turbidimetric assay of tubulin polymerisation; format: biochemical, horse; conditions: 37° C., increase in A350nm 10 min after lag phase; read-out: Total tubulin polymerisation IC50
Method: A) Tubulin Polymerisation Assay
1. Preparation of tubulin
All manipulations are performed at 4° C. unless otherwise specified. The horse brain is washed in ice-cold BBG buffer and superficial meninges and blood vessels removed. After weighing, cerebral cortices are chopped, homogenised in 75 ml BBG buffer/100 g brain, centrifuged at 6500 g for 15 min and after removal of […], re-centrifuged at 100,000 g for 75 min. The volume of the supernatant (Vml) is measured and V/10 ml 10 mM GTP (Li salt) in H2 O added. The mixture is incubated in sealed centrifuge tubes (30 min, 34° C.) in a shaking water bath to polymerise the tubulin. After polymerisation the tubes are balanced and centrifuged at 100,000 g, (1 h at 27° C.) in a pre-warmed rotor. The high-speed pellet is resuspended in V/4 ml BB buffer and the preparation stirred on ice for 30 min and centrifuged at 100,000 g (1 h at 4° C.) to remove the cold-stable microtubules. An equal volume of BB2G buffer is added to the supernatant which is frozen rapidly in 5 ml samples in plastic weighing dishes floated on a solid CO2 /ethanol slurry, and stored overnight at -80° C. After ca. 18 hours the frozen samples of tubulin are thawed, 10 mM GTP in H2 O added to give a final concentration of 1 mM, and the new volume (Wml), is measured. The polymerisation/depolymerisation cycle is repeated exactly as above but substituting W for V to give twice-cycled tubulin.
2. Turbidimetric Assay of Tubulin Polymerisation
Apparatus: recording spectrophotometer with a 6-position, thermostatted cuvette holder; full scale deflection=0.2 absorbance units.
In a 1 ml spectrophotometer cuvette are mixed 100 μl 10 mM GTP (Li salt) made up in BB buffer, 10 μl H2 O or DMSO-depending on selected drug solvent, BB buffer and tubulin preparation such that the final increase in A350nm is 0.15 units after 16 mins (approx. 100 μl of tubulin prep. or 2.5 mg protein) in a final volume of 1 ml at 37° C. All reagents are stored on ice.
Polymerisation is initiated by raising the temperature to 37° C. and the increase in A350nm of triplicate samples against a reference cuvette is recorded. The reference sample includes a similar incubation mixture either without tubulin or with the addition of 1 mM Ca^2+. The increase over initial A350nm 10 min after the completion of lag phase (control polymerisation is 80% complete within this time) is calculated and expressed as a percentage of the control value, for a range of drug concentrations. The drug concentration required to give a 50% change (IC50) in the control value is determined.

[2] = tested on: P388 D1 cells; assay: P388 D1 colony-forming assay; format: cell-based; conditions: Mus musculus, P388D1; 24 h exposure, 14 days colony growth; read-out: IC50 colony formation
Method: B) P338D1 Colony-forming Assay
In this assay, cells from an in vitro-adapted line of the mouse lymphoid neoplasm, P388 are first exposed to serially diluted concentrations of test compound over a 24 hour period in culture. Thereafter, the ability of such treated cells to form discrete colonies over a 14 day period after resuspension in a semi-solid drug-free medium is determined.
Initially cells in log growth are plated into individual 25 cm^2 tissue culture flasks each containing a final volume of 5 mls of Hepes buffered RPMI 1640 culture medium supplemented with 10 percent foetal calf serum, antibiotics and test compound. All compounds are formulated initially at appropriate concentrations in DMSO, 25 microliters of which is then added to each flask. All compounds are evaluated at concentrations ranging serially in four fold decrements from a top concentration some four fold greater than that already known to inhibit the proliferation of these cells by about 80 to 90 percent in the primary proliferative assay.
After 24 hrs exposure to the test compound the cells are counted and a known number of live cells transferred to a 15 ml centrifuge tube to which 4 mls of a 0.25 percent low temperature gelling agarose solution in complete RPMI tissue culture medium is then added. After 13 days incubation at 37° C., 1 ml of 1% p-Iodonitrotetrazolium violet is added to the top of each tube and allowed to permeate through the agarose for a further 24 to 48 hrs. This dye is metabolised by living cells to produce an insoluble red crystalline product which facilitates counting of the colonies. Samples are taken from each tube and the number of colonies containing a minimum of 50 cells is determined. The concentration of compound necessary to inhibit colony formation by 50 percent relative to that of control cells incubated under identical conditions but in the absence of the test compound is determined.

[3] = LD20 (Mouse); format: in vivo; conditions: i.p. days 1, 5 and 9, CD2-F1 mice, observed up to 14 days
[4] = tested on: P388/MTX; assay: In vivo activity against drug resistant tumour P388/MTX; set-up: species or system mouse; conditions: optimum dose 7.5 mg/kg
Method: (§1) CD2-F1 mice, of the same sex, weighing within a 3 gram range surrounding 20 g, are used for this test. Control and test animals are injected intraperitoneally with a suspension of 10^6 viable P388/O tumour cells on day 0. In each test several dose levels which bracket the LD20 for the compound are evaluated; each dose level group contains 6 animals. The test compounds are prepared either in physiologic saline containing 0.05% Tween 80 or distilled water containing 5% dextrose and are administered intraperitoneally on days 1,5 and 9 relative to tumour implant. Doses are on a mg/kg basis according to individual animals' body weights. The day of death for each animal is recorded and the median day of death identified for each group. The difference between the median survival time for treated and control groups is expressed as a percentage increase in life span (% ILS).
(§2) E. Activity Against Drug-Resistant Tumours
(§3) Using a similar procedure to the Lymphocytic Leukaemia P388/O test, the compound of Example 1 was evaluated against P388/O tumours which had been made resistant to the following standard, clinically used anti-tumour agents: […]

[5] = tested on: strains of P388; assay: In vivo activity against strains of P388 resistant to major clinically used anti-tumour agents; set-up: species or system mouse; conditions: resistant to cyclophosphamide, methotrexate, actinomycin D, vincristine, adriamycin, 5-fluorouracil, cis-platinum, bis-chloronitrosourea and amsacrine
Method: as §1, §2, §3

COC(=O)Nc1cn2nc(OCc3cc(OC)c(OC)c(OC)c3)ccc2n1 [Example 1, Methyl N-[6-(3,4,5-trimethoxybenzyloxy)imidazo[1,2-b]pyridazin-2-yl]carbamate]
IC50 [1]: 420 nM
IC50 [2]: 13.2 nM
LD50 [3]: 20 to 30 mg/kg
60 Day Survivors [4]: 1/6
% ILS [4]: +100%
activity in vivo against resistant strains of P388 [5]: good activity in vivo
